In patent US20110280940A1, “Di-Vanilloyl And Tri-Vanilloyl Derivatives For Use In Anti-Cancer Therapy” (priority 2008, published 2011):
Where two headings read alike, the source gives them in different places.

How the values were obtained:
[1] = test system: Eleven human cancer cell lines; test: MTT colorimetric assay, across the eleven human cancer cell lines; type: cell-based; settings: mean ± SEM over the 11 human cancer cell lines, MTT, 72 hours; read-out: In Vitro IC50 Growth Inhibitory Values, m ± SEM
Description: (§1) The amount of formazan obtained at the end of the experiment, measured by means of a spectrophotometer, is directly proportional to the number of living cells. Optical density determination thus enabled a quantitative measurement of the effect of the investigated compounds as compared to the control condition (untreated cells) and/or to other reference compounds. Eleven human cancer cell lines and one mouse melanoma cell-line (B16F10) described in Table 2 were used in the following MTT tests. These cancer cell lines cover seven histological cancer types including prostate (PC3), glioma (Hs683, T98G, U373, melanoma (VM21, VM28), non-small-cell-lung (A549), breast (MCF-7), colon (LoVo) and oesophageal (OE21, OE33) cancers. […] Each cell line was seeded in its appropriate culture medium. The detailed experimental procedure was the following: after a 24-hour period of incubation at 37° C., the culture medium was replaced by 100 μl of fresh medium in which the tested compound was previously dissolved, at the following molar concentrations: 10^-8 […] and 10^-4 M. Each experiment was performed in sestuplicates (6 times). After 72 hours of incubation at 37° C. with (experimental conditions) or without (control condition) the compound to be tested, the medium was replaced by 100 μl MTT dissolved in RPMI (1640 without phenol red) at a concentration of 0.5 or 1 mg/ml. The micro-wells were subsequently incubated during 3 hours and a half at 37° C. and centrifuged at 1300 rpm during 10 minutes. MTT was removed and formazan crystals formed were dissolved in 100 μl DMSO. The micro-wells were shaken for 5 minutes and read on a spectrophotometer at wavelengths of 570 nm (maximal formazan absorbance). For each experimental condition, the mean optical density was calculated, allowing the determination of the percentage of remaining living cells in comparison to the control. […] The origin of all the cell lines we used, along with their biological characteristics, and the validation procedures of the MTT colorimetric assay as employed here are fully detailed in Van Quaquebeke et al., 2005, J Med Chem 48:849-856; […]

Hs683 glioma cells = test: MTT colorimetric assay, overall cell growth, Hs683; type: cell-based, human; settings: read-out: In Vitro IC50 Growth Inhibitory Values, Hs683
Description: as §1

U373 glioblastoma cells = test: MTT colorimetric assay, overall cell growth, U373; type: cell-based, human; settings: 72 hours of incubation, read-out: In Vitro IC50 Growth Inhibitory Values, U373
Description: as §1

VM21 melanoma cells = test: MTT colorimetric assay, overall cell growth, VM21; type: cell-based, human; settings: MTT, 72 hours of incubation, read-out: In Vitro IC50 Growth Inhibitory Values, VM21
Description: as §1

[2] = test system: PC-3 prostate cancer cells; test: MTT colorimetric assay, overall cell growth, PC-3; type: cell-based, human; settings: 72 hours of incubation, read-out: In Vitro IC50 Growth Inhibitory Values, PC-3
Description: as §1

LoVo colon cancer cells = test: MTT colorimetric assay, overall cell growth, LoVo; type: cell-based, human; settings: 72 hours of incubation, read-out: In Vitro IC50 Growth Inhibitory Values, LoVo
Description: as §1

[3] = test system: A549 non-small-cell-lung cancer cells; test: MTT colorimetric assay, overall cell growth, A549; type: cell-based, human; settings: read-out: In Vitro IC50 Growth Inhibitory Values, A549
Description: as §1

[4] = test system: OE21 oesophageal cancer cells; test: MTT colorimetric assay, overall cell growth, OE21; type: cell-based, human; settings: read-out: In Vitro IC50 Growth Inhibitory Values, OE21
Description: as §1

[5] = test system: B16F10 melanoma cell-line; test: MTT colorimetric assay, overall cell growth, B16F10; type: cell-based, mouse; settings: read-out: In Vitro IC50 Growth Inhibitory Values, B16F10
Description: as §1

[6] = test system: MCF-7 breast cancer cells; test: MTT colorimetric assay, overall cell growth, MCF-7; type: cell-based, human; settings: read-out: In Vitro IC50 Growth Inhibitory Values, MCF-7
Description: as §1

[7] = test system: OE33 oesophageal cancer cells; test: MTT colorimetric assay, overall cell growth, OE33; type: cell-based, human; settings: read-out: In Vitro IC50 Growth Inhibitory Values, OE33
Description: as §1

T98G glioma cells = test: MTT colorimetric assay, overall cell growth, T98G; type: cell-based, human; settings: 72 hours of incubation, read-out: In Vitro IC50 Growth Inhibitory Values, T98G
Description: as §1

VM48 melanoma cells = test: MTT colorimetric assay, overall cell growth, VM48; type: cell-based, human; settings: MTT, 72 hours of incubation, read-out: In Vitro IC50 Growth Inhibitory Values, VM48

| SMILES | IC50 (VM21 melanoma cells; Homo sapiens) [µM] | IC50 (VM48 melanoma cells; Homo sapiens) [µM] | IC50 [1] [µM] | IC50 (Hs683 glioma cells; 72 hours of incubation) [µM] | IC50 (U373 glioblastoma cells) [µM] | IC50 (VM21 melanoma cells) [µM] | IC50 [2] [µM] | IC50 (LoVo colon cancer cells) [µM] | IC50 ([3]; 72 hours of incubation) [µM] | IC50 ([4]; 72 hours of incubation) [µM] | IC50 ([5]; 72 hours of incubation) [µM] | IC50 ([6]; 72 hours of incubation) [µM] | IC50 ([7]; 72 hours of incubation) [µM] | IC50 (T98G glioma cells) [µM] | IC50 (VM48 melanoma cells) [µM] | also measured |
| --- | --- | --- | --- | --- | --- | --- | --- | --- | --- | --- | --- | --- | --- | --- | --- | --- |
| COc1cc(C(=O)O[C@H]2CCCCC[C@@H]2OC(=O)c2ccc(O)c(OC)c2)ccc1O (relative stereo) [DLT22, S,S-trans-cycloheptane-1,2-diyl bis-(4-hydroxy-3-methoxybenzoate)] | – | – | 52 | 44 | 54 | 51 | 88 | 44 | 46 | 49 | 10 | 69 | 55 | 24 | 50 | – |
| O=C(OCCOC(=O)c1cc(O)c(O)c(O)c1)c1cc(O)c(O)c(O)c1 [DLT31, Ethane-1,2-diyl bis-(3,4,5-trihydroxybenzoate)] | 37 | 35 | 30 ± 3 | – | – | – | – | – | – | – | – | – | – | – | – | IC50 (Hs683 glioma cells; Homo sapiens, Hs 683, 72 hours of incubation): 27 µM; IC50 (U373 glioblastoma cells; Homo sapiens, U373 MG): 28 µM; IC50 ([2]; Homo sapiens): 30 µM; IC50 (LoVo colon cancer cells; Homo sapiens, LoVo): 29 µM; IC50 ([3]; Homo sapiens, A549, 72 hours of incubation): 23 µM; IC50 ([4]; Homo sapiens, OE21, 72 hours of incubation): 16 µM; IC50 ([5]; Mus musculus, B16-F10, 72 hours of incubation): 41 µM; IC50 ([6]; Homo sapiens, MCF7, 72 hours of incubation): 55 µM; IC50 ([7]; Homo sapiens, OE33, 72 hours of incubation): 19 µM; IC50 (T98G glioma cells; Homo sapiens, T98G): 28 µM |
| O=C(O[C@H]1CCCC[C@@H]1OC(=O)c1cc(O)c(O)c(O)c1)c1cc(O)c(O)c(O)c1 (stereo in doubt) [DLT33, S,S-trans-cyclohexane 1,2-diyl bis-(3,4,5-trihydroxybenzoate)] | – | – | 43 | 32 | 35 | 38 | 44 | 43 | 30 | 43 | 22 | 58 | 66 | 38 | 51 | – |
| COc1cc(C(=O)NCCCCCNC(=O)c2ccc(O)c(OC)c2)ccc1O [DLT37, N,N′-Pentane-1,5-diyl bis-(4-hydroxy-3-methoxybenzamide)] | – | – | > 100 | 80 | 91 | > 100 | > 100 | 41 | 52 | 81 | > 100 | 71 | > 100 | 55 | > 100 | – |
| COc1cc(C(=O)O[C@H]2CC[C@H](OC(=O)c3ccc(O)c(OC)c3)C2)ccc1O (stereo in doubt) [DLT18, S,S-trans-cyclopentane-1,3-diyl bis-(4-hydroxy-3-methoxybenzoate)] | – | – | > 100 | 46 | > 100 | > 100 | 43 | 41 | 43 | 53 | 30 | 44 | 64 | > 100 | 59 | – |
| COc1cc(C(=O)NCCCNC(=O)c2ccc(O)c(OC)c2)ccc1O [DLT36, N,N′-Propane-1,3-diyl bis-(4-hydroxy-3-methoxybenzamide)] | – | – | 35 ± 2 | 31 | 38 | 49 | 40 | 32 | 26 | 28 | 38 | 25 | 36 | 40 | 43 | – |
| O=C(O[C@@H]1CCCC[C@H]1OC(=O)c1ccc(O)c(Cl)c1)c1ccc(O)c(Cl)c1 (relative stereo) [DLT30, R,R-trans-cyclohexane-1,2-diyl bis-(4-hydroxy-3-chlorobenzoate)] | – | – | 32 | 10 | 31 | 53 | 44 | 26 | 18 | 41 | 1 | 21 | 34 | 11 | 58 | – |
| COc1cc(C(=O)O[C@H]2CCC[C@@H]2OC(=O)c2ccc(O)c(OC)c2)ccc1O (stereo in doubt) [DLT15, S,S-trans-cyclopentane-1,2-diyl bis-(4-hydroxy-3-methoxybenzoate)] | – | – | 28 | 25 | 30 | 35 | 26 | 28 | 30 | 28 | 6 | 23 | 28 | 30 | 26 | – |

Further lines, with some results ahead:

| IC50 (VM21 melanoma cells; Homo sapiens) [µM] | IC50 (VM48 melanoma cells; Homo sapiens) [µM] | SMILES | IC50 [1] [µM] | IC50 (Hs683 glioma cells; 72 hours of incubation) [µM] | IC50 (U373 glioblastoma cells) [µM] | IC50 (VM21 melanoma cells) [µM] | IC50 [2] [µM] | IC50 (LoVo colon cancer cells) [µM] | IC50 ([3]; 72 hours of incubation) [µM] | IC50 ([4]; 72 hours of incubation) [µM] | IC50 ([5]; 72 hours of incubation) [µM] | IC50 ([6]; 72 hours of incubation) [µM] | IC50 ([7]; 72 hours of incubation) [µM] | IC50 (T98G glioma cells) [µM] | IC50 (VM48 melanoma cells) [µM] | also measured |
| --- | --- | --- | --- | --- | --- | --- | --- | --- | --- | --- | --- | --- | --- | --- | --- | --- |
| 48 | 58 | COc1cc(C(=O)OCc2ccccc2COC(=O)c2ccc(O)c(OC)c2)ccc1O [DLT24, [2-[(4-hydroxy-3-methoxy-benzoyl)oxymethyl]phenyl]methyl 4-hydroxy-3-methoxy-benzoate] | 53 ± 2 | – | – | – | – | – | – | – | – | – | – | – | – | – |
| 42 | 60 | COc1cc(C(=O)OCC#CCOC(=O)c2ccc(O)c(OC)c2)ccc1O [DLT28, 1,4-oxybut-2-ynyl bis(4-hydroxy-3-methoxybenzoate)] | 50 ± 4 | – | – | – | – | – | – | – | – | – | – | – | – | – |
| > 100 | > 100 | COc1ccc(C(=O)OCCCCCCOC(=O)c2ccc(OC)c(OC)c2)cc1OC [DLT26, 6-(3,4-dimethoxybenzoyl)oxyhexyl 3,4-dimethoxybenzoate] | > 100 | – | – | – | – | – | – | – | – | – | – | – | – | – |
| 74 | 82 | COc1ccc(C(=O)OCCCCCCOC(=O)c2ccc(OC)c(O)c2)cc1O [DLT29, 6-(3-hydroxy-4-methoxy-benzoyl)oxyhexyl 3-hydroxy-4-methoxy-benzoate] | > 100 | – | – | – | – | – | – | – | – | – | – | – | – | – |
| > 100 | > 100 | COc1cc(C(=O)OC/C=C/COC(=O)c2ccc(O)c(OC)c2)ccc1O [DLT27, 1,4-oxybut-2-enyl-bis(4-hydroxy-3-methoxybenzoate)] | > 100 | – | – | – | – | – | – | – | – | – | – | – | – | IC50 ([2]; Homo sapiens): > 100 µM |
| 81 | 51 | COc1cc(C(=O)OCc2cccc(COC(=O)c3ccc(O)c(OC)c3)c2)ccc1O [DLT25, [3-[(4-hydroxy-3-methoxy-benzoyl)oxymethyl]phenyl]methyl 4-hydroxy-3-methoxy-benzoate] | 52 ± 5 | – | – | – | – | – | – | – | – | – | – | – | – | – |
